Legend:
tobacco budworm = assay: foliar treated test against tobacco budworm on chick pea plants; type: in vivo, Heliothis virescens; conditions: 96 hour exposure, dead plus moribund insects
Protocol: Certain compounds of formula I were tested against tobacco budworm on plant foliage. The foliar treated test against tobacco budworm were conducted in the following manner:
Nine-to-ten day-old chick pea plants (Cicer arietinum) were sprayed at 15 psi to runoff on both upper and lower leaf surfaces with solutions of test compound to provide application rates as high as 1000 ppm of test chemical. The solvent used to prepare the solutions of test compound was 10% acetone or methanol (v/v) and 0.1% of the surfactant octylphenoxypolyethoxyethanol in distilled water. Four replicates, each containing one chick pea plant, for each rate of application of test compound were sprayed. The treated plants were transferred to a hood where they were kept until the spray had dried.
The four chick pea plants for each replicate treated with test compound as described above were removed from their pots by cutting the stems just above the soil line. The excised leaves and stems from the four plants in each replicate were placed in individual 237 mL (8-ounce) paper cups, which contained a moistened filter paper. Five second-instar tobacco budworm (7 days old) were counted into each cup, taking care not to cause injury. An opaque plastic lid was placed on each cup, which was then held in a growth chamber for a 96 hour exposure period at 25° C., 50% relative humidity and photo-period of 12 hours light and 12 hours dark. At the end of the 96 hour exposure period the cups were opened, and the numbers of dead, moribund, and live insects were counted. Using the insect counts, the efficacy of the test compound was expressed in percent control. Percent control is derived from the total number of dead insects (TD) plus the total number of moribund insects (TM) as compared to the total number of insects (TI) in the test:
The condition of the test plants was also observed for phytotoxicity and for reduction of feeding damage as compared to an untreated control.

[1] = system: tobacco budworm (Heliothis virescens [Fabricius]); assay: surface-treated diet test against tobacco budworm; type: in vivo; conditions: 0.25 millimolar on the surface of the diet, second instar larvae, five-day exposure; for Percent Growth Inhibition: insect weight relative to untreated controls
Description: The test compounds of formula I are identified by numbers that correspond to those in Table 1.

[2] = 30 ppm foliar spray on chick pea
[3] = 10 ppm foliar spray on chick pea

SMILES	Percent Control (tobacco budworm; [2])	Percent Growth Inhibition [1]	Percent Control (tobacco budworm; [3])	Percent Mortality [1]
CC1(C)Cc2cc(Cl)cc(OCCOc3c(Cl)cc(OCC=C(Cl)Cl)cc3Cl)c2O1 [Compound 1]	70%			
CC1(C)Oc2cccc(OCCCCOc3c(Cl)cc(OCC=C(Cl)Cl)cc3Cl)c2O1 [Compound 2, 5-(3,3-Dichloroprop-2-enyloxy)-2-[4-(2,2-dimethylbenzo[d]1,3-dioxolan-4-yloxy)butoxy]-1,3-dichlorobenzene]	100%	100%	85%	
CC1(C)Oc2ccc(OCCCCOc3c(Cl)cc(OCC=C(Cl)Cl)cc3Cl)cc2O1 [Compound 4, 5-{4-[4-(3,3-dichloroprop-2-enyloxy)-2,6-dichlorophenoxy]butoxy}-2,2-dimethylbenzo[d]1,3-dioxolane]	100%	100%	83%	
FC1(F)Oc2ccc(OCCCCOc3c(Cl)cc(OCC=C(Cl)Cl)cc3Cl)cc2OC1(F)F [Compound 9, 5-(3,3-Dichloroprop-2-enyloxy)-1,3-dichloro-2-[4-(2,2,3,3-tetrafluorobenzo[3,4-e]1,4-dioxan-6-yloxy)butoxy]benzene]	100%	100%		100%

— US7585891B2, “Pesticidal (dihalopropenyl)phenylalkyl substituted benzodioxolane and benzodioxole derivatives” (FMC Corporation, priority 2003, dated 2009)
